Where “and” joins values, the source holds several entries; their conditions need not be identical. Identical values can stand only once. Like-named read-outs stand apart in the source and are kept apart here.
Experiments:
C. albicans ATCC 10231 = test: Antimicrobial activity, broth microdilution MIC/MBC; type: cell-based, Candida albicans; conditions: C. albicans ATCC 10231, 24 h at 37 °C, at least 90% growth inhibition; nd—not detected
E. coli ATCC 8739 = test: as above; type: cell-based, Escherichia coli; conditions: nd—not detected; for MIC (%): E. coli ATCC 8739, 24 h at 37 °C, at least 90% growth inhibition; for MBC (%): E. coli ATCC 8739
L929 fibroblasts = test: Mammalian cell cytotoxicity screening, resazurin viability; type: cell-based, mouse
[1] = test system: Lepidium sativum L. seeds; conditions: 24 h incubation, mean(±SD), n = 3
S. aureus ATCC 6538 = test: Antimicrobial activity, broth microdilution MIC/MBC; type: cell-based, Staphylococcus aureus; conditions: S. aureus ATCC 6538, 24 h at 37 °C, at least 90% growth inhibition; nd—not detected
[2] = test system: Lepidium sativum L. roots; conditions: 24 h incubation, mean(±SD), n = 3
cress [3] = test system: cress; set-up: method as in PMID 19052732; conditions: cress seed, highest concentration of 1000 mg L^−1 ref 17; cited from earlier work
cress [4] = test system: cress; set-up: method as in doi:10.1134/S0036023620090089; conditions: 0.003 and 0.03 mg L^−1 ref 12; cited from earlier work
CaCo-2 = test system: CaCo-2; set-up: method as in doi:10.1039/C4TX00079J; conditions: CaCo-2 ref 39; cited from earlier work
[5] = test system: 3T3 cell (mouse embryonic fibroblasts); conditions: cited from earlier work
NIH/3T3 = test system: NIH/3T3; set-up: method as in doi:10.1039/C4TX00079J; conditions: NIH/3T3 ref 39; cited from earlier work
E. coli = test system: E. coli; set-up: method as in doi:10.3139/113.110524; conditions: E. coli ref 49; cited from earlier work
[6] = 0.01% (w/w) compound in the medium
[7] = 0.03% (w/w) compound in the medium
[8] = 0.05% (w/w) compound in the medium
[9] = 0.10% (w/w) compound in the medium
[10] = 0.30% (w/w) compound in the medium
[11] = 0.50% (w/w) compound in the medium
[12] = 1.00% (w/w) compound in the medium
[13] = 2.00% (w/w) compound in the medium
[14] = 3.00% (w/w) compound in the medium
[15] = 4.00% (w/w) compound in the medium
[16] = 5.00% (w/w) compound in the medium

For `O=C(O)[C@@H]1CCCN1.OCCN(CCO)CCO` [[TEA][Pro]], the “MIC (%)” value (C. albicans ATCC 10231) was 7.50%, the “MIC (%)” value (E. coli ATCC 8739) was 7.50% and the “MBC (%)” value (E. coli ATCC 8739) was 7.50%. For the same compound, the ED20 (L929 fibroblasts; 24h exposure) was 0.32±0.05%, the ED50 (L929 fibroblasts; 24h exposure) was 0.56±0.04% and the ED80 (L929 fibroblasts; 24h exposure) was 0.86±0.14%. It also gave an ED20 (L929 fibroblasts; 48h exposure) of 0.35±0.04%, an ED50 (L929 fibroblasts; 48h exposure) of 0.64±0.04% and an ED80 (L929 fibroblasts; 48h exposure) of 1.00±0.13%. For the same compound, the “Inhibition of the Lepidium sativum seeds germination (ISG, %)” value (“Inhibition … (ISG, %)” for short) [1, 6] was 3.7(±0.5) %, the “Inhibition … (ISG, %)” value [1, 7] was 6.5(±0.5) % and the “Inhibition … (ISG, %)” value [1, 8] was 9.3(±0.5) %. The “Inhibition … (ISG, %)” value [1, 9] was 16.7(±0.8) %, the “Inhibition … (ISG, %)” value [1, 10] was 18.5(±0.5) % and the “Inhibition … (ISG, %)” value [1, 11] was 20.4(±1.3) %. The “Inhibition … (ISG, %)” value [1, 12] was 25.9(±1.3) %, the “Inhibition … (ISG, %)” value [1, 13] was 29.6(±0.9) % and the “Inhibition … (ISG, %)” value [1, 14] was 40.7(±0.5) %. The “Inhibition … (ISG, %)” value [1, 15] was 51.9(±0.5) %, the “Inhibition … (ISG, %)” value [1, 16] was 79.6(±0.5) % and the “MIC (%)” value (S. aureus ATCC 6538) was 7.50%. For the same compound, the “Inhibition of the root growth in pregerminated Lepidium sativum seeds (IRG, %)” value (“Inhibition of the root growth … (IRG, %)” for short) [2, 6] was 0.0(±0.0) %, the “Inhibition of the root growth … (IRG, %)” value [2, 7] was 20.7(±2.1) % and the “Inhibition of the root growth … (IRG, %)” value [2, 8] was 27.3(±2.2) %. The “Inhibition of the root growth … (IRG, %)” value [2, 9] was 39.5(±1.9) %, the “Inhibition of the root growth … (IRG, %)” value [2, 10] was 57.5(±1.5) % and the “Inhibition of the root growth … (IRG, %)” value [2, 11] was 67.7(±1.1) %. The “Inhibition of the root growth … (IRG, %)” value [2, 12] was 74.5(±1.2) %, the “Inhibition of the root growth … (IRG, %)” value [2, 13] was 83.0(±0.7) % and the “Inhibition of the root growth … (IRG, %)” value [2, 14] was 88.2(±0.6) %. For the same compound, the “Inhibition of the root growth … (IRG, %)” value [2, 15] was 90.1(±0.8) % and the “Inhibition of the root growth … (IRG, %)” value [2, 16] was 92.0(±0.7) %.

For `CCn1cc[n+](C)c1.[Cl-]` [[EMIM][Cl]], the decrease in germination (cress [3]) is given as 85%.

For `O=C(O)C=Cc1ccccc1.OCCN(CCO)CCO` [TEA salt of cinnamic acid], the “effect on cress seed germination and root growth” value (cress [4]) is given as “most visible stimulation”.

In the case of `CCCCn1cc[n+](C)c1` [[BMIM][PF6]], the IC50 (CaCo-2) is listed as 11.5 mM.

For `C[N+](C)(C)CCO.NCC(=O)[O-]` [[Cho][Gly]], the Cell viability [5] is listed as “over 90%”.

In the case of `CCCCn1cc[n+](C)c1.C[C@H](N)C(=O)[O-]` [[BMIM][Ala]], the IC50 (CaCo-2) is listed as 19.3 mM and the IC50 (NIH/3T3) is listed as 30.2 mM.

In the case of `NCC(=O)O` [[Cho][Gly]], the IC50 ([5]; 3T3 cells, 48 h, printed also as (1%) ref 34) is given as about 55 mM.

For `NC(CO)C(=O)O.OCCN(CCO)CCO` [[TEA][Ser]], the “MIC (%)” value (C. albicans ATCC 10231) was 3.75%, the “MIC (%)” value (E. coli ATCC 8739) was 7.50% and the “MBC (%)” value (E. coli ATCC 8739) was 7.50%. For the same compound, the ED20 (L929 fibroblasts; 24h exposure) was 0.26±0.03%, the ED50 (L929 fibroblasts; 24h exposure) was 0.55±0.04% and the ED80 (L929 fibroblasts; 24h exposure) was 0.98±0.11%. For the same compound, the “Inhibition … (ISG, %)” value [1, 6] was 0.0(±0.0) %, the “Inhibition … (ISG, %)” value [1, 7] was 0.0(±0.0) % and the “Inhibition … (ISG, %)” value [1, 8] was 0.0(±0.0) %. For the same compound, the “Inhibition … (ISG, %)” value [1, 9] was 2.8(±1.7) %, the “Inhibition … (ISG, %)” value [1, 10] was 5.7(±1.3) % and the “Inhibition … (ISG, %)” value [1, 11] was 6.6(±0.9) %. The “Inhibition … (ISG, %)” value [1, 12] was 7.5(±1.7) %, the “Inhibition … (ISG, %)” value [1, 13] was 17.0(±0.5) % and the “Inhibition … (ISG, %)” value [1, 15] was 34.0(±2.6) %. For the same compound, the “MIC (%)” value (S. aureus ATCC 6538) was 7.50%, the “Inhibition of the root growth … (IRG, %)” value [2, 6] was 0.0(±0.0) % and 0% and the “Inhibition of the root growth … (IRG, %)” value [2, 7] was 0.0(±0.0) % and 0%. For the same compound, the “Inhibition of the root growth … (IRG, %)” value [2, 8] was 0.0(±0.0) % and 0%, the “Inhibition of the root growth … (IRG, %)” value [2, 10] was 14.6% and the “Inhibition of the root growth … (IRG, %)” value [2, 11] was 25.3%. For the same compound, the “Inhibition of the root growth … (IRG, %)” value [2, 12] was 70.2(±0.7) %, the “Inhibition of the root growth … (IRG, %)” value [2, 13] was 77.8(±0.6) % and the “Inhibition of the root growth … (IRG, %)” value [2, 14] was 79.5(±0.6) %. For the same compound, the “Inhibition of the root growth … (IRG, %)” value [2, 15] was 81.3(±0.5) % and the “Inhibition of the root growth … (IRG, %)” value [2, 16] was 91.2(±0.4) %.

In the case of benzalkonium chloride, the MIC (E. coli) is given as 15 µg/mL.

From publication PMC12029836, “Phytotoxicity, Cytotoxicity, and Antimicrobial Activity of Triethanolammonium Amino Acids Salts” (Molecules, 2025)
